Laboratory results: PMC3618506 (Nature, 2013)

T1: mCRY2-PHR (Mus musculus, UniProt Q9R194)
T1 sequence (Q9R194 1-512): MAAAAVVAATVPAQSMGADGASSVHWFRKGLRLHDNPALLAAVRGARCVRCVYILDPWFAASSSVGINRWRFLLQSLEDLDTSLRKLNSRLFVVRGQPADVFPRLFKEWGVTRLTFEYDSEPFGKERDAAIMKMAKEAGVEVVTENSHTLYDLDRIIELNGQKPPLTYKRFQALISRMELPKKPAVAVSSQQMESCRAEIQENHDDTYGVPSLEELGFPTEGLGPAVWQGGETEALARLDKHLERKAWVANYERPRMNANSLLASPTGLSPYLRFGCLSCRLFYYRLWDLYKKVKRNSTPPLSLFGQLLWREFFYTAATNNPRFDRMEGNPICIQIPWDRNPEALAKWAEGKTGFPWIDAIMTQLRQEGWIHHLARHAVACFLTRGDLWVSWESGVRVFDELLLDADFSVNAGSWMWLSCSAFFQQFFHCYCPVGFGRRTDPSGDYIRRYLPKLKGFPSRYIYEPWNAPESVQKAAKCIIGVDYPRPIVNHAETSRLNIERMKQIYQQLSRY

T2: GST-tagged mCRY2 (1-544) (mouse, UniProt Q9R194 1-544)
T2 sequence: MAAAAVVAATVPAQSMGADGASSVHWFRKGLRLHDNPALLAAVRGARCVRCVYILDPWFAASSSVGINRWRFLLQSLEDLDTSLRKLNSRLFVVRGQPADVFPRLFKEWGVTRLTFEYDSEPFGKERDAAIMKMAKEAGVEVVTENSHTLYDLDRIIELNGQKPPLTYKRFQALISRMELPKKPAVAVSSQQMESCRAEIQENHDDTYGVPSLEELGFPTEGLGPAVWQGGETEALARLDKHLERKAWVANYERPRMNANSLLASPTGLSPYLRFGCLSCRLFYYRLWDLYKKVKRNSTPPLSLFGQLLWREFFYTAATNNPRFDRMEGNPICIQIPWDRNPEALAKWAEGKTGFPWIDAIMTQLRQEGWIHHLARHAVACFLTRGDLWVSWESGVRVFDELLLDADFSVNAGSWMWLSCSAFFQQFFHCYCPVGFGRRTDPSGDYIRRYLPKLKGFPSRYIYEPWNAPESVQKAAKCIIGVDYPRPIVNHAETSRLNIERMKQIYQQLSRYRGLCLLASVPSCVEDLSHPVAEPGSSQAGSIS


Tests used:
mCRY2-PHR = molecular target: T1, mCRY2-PHR; experiment: quenching of FAD fluorescence; format: binding
GST-tagged mCRY2 (1-544) = molecular target: T2, GST-tagged mCRY2 (1-544); experiment: pull-down

Row | Molecule | Kd (mCRY2-PHR) | binding result (GST-tagged mCRY2 (1-544))
1 | Cc1cc2nc3c(=O)[nH]c(=O)nc-3n(C[C@H](O)[C@H](O)[C@H](O)COP(=O)(O)OP(=O)(O)OC[C@H]3O[C@@H](n4cnc5c(N)ncnc54)[C@H](O)[C@@H]3O)c2cc1C [FAD] | ~40 µM | 
2 | Strep-tagged full-length Fbxl3 (natural protein) MKRGGRDSDRNSSEEGTAEKSKKLRTTNEHSQTCDWGNLLQDIILQVFKYLPLLDRAHASQVCRNWNQVFHMPDLWRCFEFELNQPATSYLKATHPELIKQIIKRHSNHLQYVSFKVDSSKESAEAACDILSQLVNCSLKTLGLISTARPSFMDLPKSHFISALTVVFVNSKSLSSLKIDDTPVDDPSLKVLVANNSDTLKLLKMSSCPHVSPAGILCVADQCHGLRELALNYHLLSDELLLALSSEKHVRLEHLRIDVVSENPGQTHFHTIQKSSWDAFIRHSPKVNLVMYFFLYEEEFDPFFRYEIPATHLYFGRSVSKDVLGRVGMTCPRLVELVVCANGLRPLDEELIRIAERCKNLSAIGLGECEVSCSAFVEFVKMCGGRLSQLSIMEEVLIPDQKYSLEQIHWEVSKHLGRVWFPDMMPTW |  | binds
